In patent US9163015B2, “Pyrazolopyridine, pyrarolopyrazine, pyrazolopyrimidine, pyrazolothiophene and pyrazolothiazole compounds as MGLUR4 allosteric potentiators, compositions, and methods of treating neurological dysfunction” (Vanderbilt University, priority 2010, dated 2015):

Molecular target: human mGluR4 (Homo sapiens (Human), UniProt Q14833)
Assay: mGluR4 potentiation assay, CHO cells transfected with human mGluR4, Ca2+-sensitive fluorescent dye, EC20 agonist
Format: cell-based
Conditions: potentiation of mGluR4; table does not state human or rat receptor
Description: The disclosed compounds and compositions can be evaluated for their ability to act as a potentiator of metabotropic glutamate receptor activity, in particular mGluR4 activity, by any suitable known methodology known in the art. For example, Chinese Hamster Ovary (CHO) cells transfected with human mGluR4 or HEK cells co-transfected with rat mGluR4 and the G-protein regulated Inwardly Rectifying Potassium channel (GIRK) were plated in clear bottom assay plates for assay in a Hamamatsu FDSS Fluorometric Plate Reader. The cells were loaded with either a Ca2+-sensitive fluorescent dye or the thallium responsive dye and the plates were washed and placed into a suitable kinetic plate reader. For human mGluR4 assays, a fluorescence baseline was established for 3-5 seconds, the disclosed compounds were then added to the cells, and the response in cells was measured. Approximately two and a half minutes later, a concentration of mGluR4 orthosteric agonist (e.g. glutamate or L-AP4) eliciting approximately 20% (EC20) of the maximal agonist response was added to the cells, and the response was measured. Two minutes later, a concentration of mGluR4 agonist (e.g. glutamate or L-AP4) eliciting 80% (EC80) of the maximal agonist response was added to the cells, and the response was measured. For rat mGluR4/GIRK experiments, a baseline was established for approximately five seconds, disclosed compounds were added, and either an EC20 or EC80 concentration of agonist was added approximately two and one half minutes later.
The above described assay operated in two modes. In the first mode, a range of concentrations of the disclosed compounds are added to cells, followed by a single fixed concentration of agonist. If the compound acts as a potentiatior, an EC50 value for potentiation and a maximum extent of potentiation by the compound at this concentration of agonist is determined by non-linear curve fitting. If the compound acts as a noncompetitive antagonist, an IC50 value is determined by non-linear curve fitting. In the second mode, several fixed concentrations of the disclosed compounds are added to various wells on a plate, followed by a range in concentrations of agonist for each concentration of disclosed compound. The EC50 values for the agonist at each concentration of compound are determined by non-linear curve fitting. A decrease in the EC50 value of the agonist with increasing concentrations of the sample compound (a leftward shift of the agonist concentration-response curve) is an indication of the degree of mGluR4 potentiation at a given concentration of the sample compound. A decrease in the maximal response of the agonist with increasing concentrations of the sample compounds, with or without a rightward shift in agonist potency, is an indication of the degree of noncompetitive antagonism at mGluR4. The second mode also indicates whether the sample compounds also affect the maximum response to mGluR4 to agonists.

human mGluR4, sequence (Q14833 33-912): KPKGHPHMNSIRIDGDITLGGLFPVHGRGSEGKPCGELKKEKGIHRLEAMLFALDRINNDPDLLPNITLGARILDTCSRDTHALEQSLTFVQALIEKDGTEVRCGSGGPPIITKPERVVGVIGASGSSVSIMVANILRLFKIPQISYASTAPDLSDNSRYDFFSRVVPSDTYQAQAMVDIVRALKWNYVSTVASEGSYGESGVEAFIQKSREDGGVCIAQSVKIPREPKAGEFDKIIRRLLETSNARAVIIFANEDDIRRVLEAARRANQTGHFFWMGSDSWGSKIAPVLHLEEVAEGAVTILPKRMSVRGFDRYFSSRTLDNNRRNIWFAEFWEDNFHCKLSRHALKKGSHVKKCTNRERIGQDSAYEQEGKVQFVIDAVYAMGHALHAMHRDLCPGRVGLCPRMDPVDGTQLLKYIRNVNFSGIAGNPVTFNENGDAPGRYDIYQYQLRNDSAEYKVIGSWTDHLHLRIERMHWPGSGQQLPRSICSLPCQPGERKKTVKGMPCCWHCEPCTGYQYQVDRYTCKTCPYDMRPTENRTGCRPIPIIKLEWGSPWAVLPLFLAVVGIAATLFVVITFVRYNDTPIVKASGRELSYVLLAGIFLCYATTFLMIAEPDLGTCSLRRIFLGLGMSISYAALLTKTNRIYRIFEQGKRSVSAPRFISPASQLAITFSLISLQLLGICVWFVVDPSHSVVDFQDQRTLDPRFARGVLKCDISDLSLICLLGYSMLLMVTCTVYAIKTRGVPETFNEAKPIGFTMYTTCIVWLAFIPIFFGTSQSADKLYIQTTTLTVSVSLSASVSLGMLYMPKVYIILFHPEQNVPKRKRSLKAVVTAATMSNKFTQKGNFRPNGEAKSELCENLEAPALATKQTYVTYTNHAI

Row | SMILES | EC50
1 | Fc1ccc(Cl)cc1Nc1n[nH]c2cccnc12 [Example 16, N-(5-chloro-2-fluorophenyl)-1H-pyrazolo[4,3-b]pyridin-3-amine] | 116 nM
2 | Clc1cc(Nc2n[nH]c3cccnc23)ccn1 [Example 23, N-(2-chloropyridin-4-yl)-1H-pyrazolo[4,3-b]pyridin-3-amine] | 1490 nM
3 | Cc1cc(NC(=O)Nc2n[nH]c3cccnc23)ccc1F [Example 46, 1-(4-fluoro-3-methylphenyl)-3-(1H-pyrazolo[4,3-b]pyridin-3-yl)urea] | 6840 nM
4 | Clc1cncc(Nc2n[nH]c3cccnc23)c1 [Example 14, N-(5-chloropyridin-3-yl)-1H-pyrazolo[4,3-b]pyridin-3-amine] | 353 nM
5 | Fc1cc(Cl)cc(Nc2n[nH]c3cccnc23)c1 [Example 70, N-(3-chloro-5-fluorophenyl)-1H-pyrazolo[4,3-b]pyridin-3-amine] | 32 nM
6 | Clc1cc(Nc2n[nH]c3cccnc23)cnc1N1CCOCC1 [Example 30, N-(5-chloro-6-morpholinopyridin-3-yl)-1H-pyrazolo[4,3-b]pyridin-3-amine] | 2380 nM
7 | CC(C)(C)c1cccc(Nc2n[nH]c3cccnc23)c1 [Example 61, N-(3-(tert-butyl)phenyl)-1H-pyrazolo[4,3-b]pyridin-3-amine] | 7930 nM
8 | Fc1ccc2[nH]nc(Nc3ccc(F)c(Cl)c3)c2n1 [Example 95, N-(3-chloro-4-fluorophenyl)-5-fluoro-1H-pyrazolo[4,3-b]pyridin-3-amine] | 312 nM
9 | COc1cc(Nc2n[nH]c3cccnc23)ccc1F [Example 11, N-(4-fluoro-3-methoxyphenyl)-1H-pyrazolo[4,3-b]pyridin-3-amine] | 1030 nM
10 | Fc1ccc(CNc2n[nH]c3cccnc23)cc1Cl [Example 51, N-(3-chloro-4-fluorobenzyl)-1H-pyrazolo[4,3-b]pyridin-3-amine] | 7080 nM
11 | Cc1ccc(Cl)cc1Nc1n[nH]c2cccnc12 [Example 78, N-(5-chloro-2-methylphenyl)-1H-pyrazolo[4,3-b]pyridin-3-amine] | 410 nM
12 | Fc1cc(Nc2n[nH]c3cccnc23)ccc1Oc1ncccn1 [Example 74, N-(3-fluoro-4-(pyrimidin-2-yloxy)phenyl)-1H-pyrazolo[4,3-b]pyridin-3-amine] | 2760 nM
13 | c1ccc2ncc(Nc3n[nH]c4cccnc34)cc2c1 [Example 40, N-(1H-pyrazolo[4,3-b]pyridin-3-yl)quinolin-3-amine] | 961 nM
14 | Fc1cc(F)c(F)c(Nc2n[nH]c3cccnc23)c1 [Example 57, N-(2,3,5-trifluorophenyl)-1H-pyrazolo[4,3-b]pyridin-3-amine] | 782 nM
15 | Clc1cncc(Nc2n[nH]c3cccnc23)n1 [Example 32, N-(6-chloropyrazin-2-yl)-1H-pyrazolo[4,3-b]pyridin-3-amine] | 9990 nM
16 | Fc1cc(Nc2n[nH]c3cccnc23)ccc1Oc1ccc(Cl)cn1 [Example 76, N-(4-((5-chloropyridin-2-yl)oxy)-3-fluorophenyl)-1H-pyrazolo[4,3-b]pyridin-3-amine] | 151 nM
17 | Clc1cc(Nc2n[nH]c3cccnc23)cnc1Cl [Example 47, N-(5,6-dichloropyridin-3-yl)-1H-pyrazolo[4,3-b]pyridin-3-amine] | 1020 nM
18 | COc1cc(Nc2n[nH]c3cccnc23)ccc1Cl [Example 6, N-(4-chloro-3-methoxyphenyl)-1H-pyrazolo[4,3-b]pyridin-3-amine] | 1110 nM
19 | Fc1cc(Nc2n[nH]c3cccnc23)cc(F)c1F [Example 80, N-(3,4,5-trifluorophenyl)-1H-pyrazolo[4,3-b]pyridin-3-amine] | 146 nM
20 | Clc1cccc(Nc2c[nH]c3cccnc23)c1 [Example 25, N-(3-chlorophenyl)-1H-pyrrolo[3,2-b]pyridin-3-amine] | 6360 nM
21 | Fc1ccc(Nc2n[nH]c3cccnc23)cc1F [Example 5, N-(3,4-difluorophenyl)-1H-pyrazolo[4,3-b]pyridin-3-amine] | 644 nM
22 | CS(=O)(=O)c1ccc(Nc2n[nH]c3cccnc23)cc1F [Example 58, N-(3-fluoro-4-(methylsulfonyl)phenyl)-1H-pyrazolo[4,3-b]pyridin-3-amine] | 11500 nM

More lines, in order of falling EC50, values ahead:

Row | EC50 | SMILES
23 | 17300 nM | Clc1cccc(CNc2n[nH]c3cccnc23)c1 [Example 50, N-(3-chlorobenzyl)-1H-pyrazolo[4,3-b]pyridin-3-amine]
24 | 12800 nM | Cc1ccc(NC(=O)Nc2n[nH]c3cccnc23)cc1C [Example 44, 1-(3,4-dimethylphenyl)-3-(1H-pyrazolo[4,3-b]pyridin-3-yl)urea]
25 | 9180 nM | Fc1cncc(Nc2n[nH]c3cccnc23)c1 [Example 4, N-(5-fluoropyridin-3-yl)-1H-pyrazolo[4,3-b]pyridin-3-amine]
26 | 9100 nM | CS(=O)(=O)c1cc(Nc2n[nH]c3cccnc23)ccc1F [Example 72, N-(4-fluoro-3-(methylsulfonyl)phenyl)-1H-pyrazolo[4,3-b]pyridin-3-amine]
27 | 7860 nM | CS(=O)(=O)c1ccc(Nc2n[nH]c3cccnc23)cc1Cl [Example 56, N-(3-chloro-4-(methylsulfonyl)phenyl)-1H-pyrazolo[4,3-b]pyridin-3-amine]
28 | 7380 nM | Cc1cncc(Nc2n[nH]c3cccnc23)c1 [Example 33, N-(5-methylpyridin-3-yl)-1H-pyrazolo[4,3-b]pyridin-3-amine]
29 | 6440 nM | CNc1ncc(Nc2n[nH]c3cccnc23)cc1Cl [Example 48, 3-chloro-N2-methyl-N5-(1H-pyrazolo[4,3-b]pyridin-3-yl)pyridine-2,5-diamine]
30 | 2580 nM | CCc1cccc(Nc2n[nH]c3cccnc23)c1 [Example 60, N-(3-ethylphenyl)-1H-pyrazolo[4,3-b]pyridin-3-amine]
31 | 2150 nM | FC(F)(F)c1ccc(Nc2n[nH]c3cccnc23)cc1Cl [Example 22, N-(3-chloro-4-(trifluoromethyl)phenyl)-1H-pyrazolo[4,3-b]pyridin-3-amine]
32 | 1550 nM | Clc1cc(Nc2n[nH]c3cccnc23)cnc1N1CCCC1 [Example 31, N-(5-chloro-6-(pyrrolidin-l-yl)pyridin-3-yl)-1H-pyrazolo[4,3-b]pyridin-3-amine]
33 | 1440 nM | c1ccc(Nc2n[nH]c3cccnc23)cc1 [Example 20, N-phenyl-1H-pyrazolo[4,3-b]pyridin-3-amine]
34 | 885 nM | COc1ccc(Nc2n[nH]c3cccnc23)cc1OC(F)F [Example 10, N-(3-(difluoromethoxy)-4-methoxyphenyl)-1H-pyrazolo[4,3-b]pyridin-3-amine]
35 | 342 nM | Fc1cc(F)c(Nc2n[nH]c3cccnc23)cc1Cl [Example 79, N-(5-chloro-2,4-difluorophenyl)-1H-pyrazolo[4,3-b]pyridin-3-amine]
36 | 314 nM | Cc1ccc(F)c(Nc2n[nH]c3cccnc23)c1 [Example 84, N-(2-fluoro-5-methylphenyl)-1H-pyrazolo[4,3-b]pyridin-3-amine]
37 | 311 nM | O=C(c1ccccc1F)c1ccc(Nc2n[nH]c3cccnc23)cc1Cl [Example 88, (4-((1H-pyrazolo[4,3-b]pyridin-3-yl)amino)-2-chlorophenyl)(2-fluorophenyl)methanone]
38 | 282 nM | COc1ccc(Nc2n[nH]c3cccnc23)cc1Cl [Example 8, N-(3-chloro-4-methoxyphenyl)-1H-pyrazolo[4,3-b]pyridin-3-amine]
39 | 217 nM | Fc1cc(Nc2n[nH]c3cccnc23)cc(C(F)(F)F)c1 [Example 62, N-(3-fluoro-5-(trifluoromethyl)phenyl)-1H-pyrazolo[4,3-b]pyridin-3-amine]
40 | 177 nM | Cc1cc(C)cc(Nc2n[nH]c3cccnc23)c1 [Example 37, N-(3,5-dimethylphenyl)-1H-pyrazolo[4,3-b]pyridin-3-amine]
41 | 156 nM | Fc1ccc(Nc2n[nH]c3nccnc23)cc1Cl [Example 28, N-(3-chloro-4-fluorophenyl)-1H-pyrazolo[3,4-b]pyrazin-3-amine]
42 | 138 nM | Clc1cccc(Nc2n[nH]c3cccnc23)c1 [Example 1, N-(3-chlorophenyl)-1H-pyrazolo[4,3-b]pyridin-3-amine]
43 | 108 nM | Clc1cc(Nc2n[nH]c3cccnc23)ccc1Oc1cnccn1 [Example 66, N-(3-chloro-4-(pyrazin-2-yloxy)phenyl)-1H-pyrazolo[4,3-b]pyridin-3-amine]
44 | 43 nM | Clc1cc(Cl)cc(Nc2n[nH]c3cccnc23)c1 [Example 69, N-(3,5-dichlorophenyl)-1H-pyrazolo[4,3-b]pyridin-3-amine]
